Molecular target: CDK12 (Homo sapiens, UniProt Q9NYV4)
Assay: Biochemical assay for CDK12 (LANCE TR-FRET, IC50 determination)
Settings: for IC50: CDK12, IC50 class, read-out: IC50 μM (in range); for inhibition at 10 µM: compound at 10 μM, read-out: CDK12 % Inhibition @ 10 μM
Protocol: Biochemical Assay for CDK12 (IC50 Determination):
The inhibitory activity of the test compounds was assessed by the LANCE TR-FRET assay, which detects the ATP-dependent phosphorylation of an ULight-4E-BP1 (Thr37/Thr46) substrate peptide (100 nM) by CDK12 (30 nM). Briefly, the enzyme reaction was run in reaction buffer (25 mM HEPES (pH 7.5), 10 mM MgCl2, […], 0.01% Triton x, 1 mM DTT). The assay was performed in 384-well plate format. The end concentration of the ATP substrate was […], and that of the ULight-4E-BP1 (Thr37/Thr46) substrate peptide was 100 nM, and of CDK12 was 30 nM. Pre-incubation of the compound and enzyme was performed for 60 min at room temperature. After 60 min incubation at room temperature, the reaction was terminated by the addition of 40 mM EDTA and 0.5 nM Eu-labeled anti-phospho-eIF4E-binding protein (Thr37/46) antibody in LANCE detection buffer. Time-resolved fluorescence (excitation, 320 nm; emission donor, 615 nm; emission acceptor, 665 nm) was monitored by using 2030 multilabel reader Victor5 (PerkinElmer). The Fluorescence emission of the samples were measured and the ratio was plotted against the compound concentration to generate the dose response curve. The IC50 values were derived by fitting a sigmoidal dose-response curve to a plot of assay readout over inhibitor concentration. All fits were computed with the program Prism 5.03 (Graph Pad Software, San Diego, CA). The % inhibition values at […] were calculated with respect to enzyme activity.

Sequence of CDK12 (Q9NYV4 whole entry): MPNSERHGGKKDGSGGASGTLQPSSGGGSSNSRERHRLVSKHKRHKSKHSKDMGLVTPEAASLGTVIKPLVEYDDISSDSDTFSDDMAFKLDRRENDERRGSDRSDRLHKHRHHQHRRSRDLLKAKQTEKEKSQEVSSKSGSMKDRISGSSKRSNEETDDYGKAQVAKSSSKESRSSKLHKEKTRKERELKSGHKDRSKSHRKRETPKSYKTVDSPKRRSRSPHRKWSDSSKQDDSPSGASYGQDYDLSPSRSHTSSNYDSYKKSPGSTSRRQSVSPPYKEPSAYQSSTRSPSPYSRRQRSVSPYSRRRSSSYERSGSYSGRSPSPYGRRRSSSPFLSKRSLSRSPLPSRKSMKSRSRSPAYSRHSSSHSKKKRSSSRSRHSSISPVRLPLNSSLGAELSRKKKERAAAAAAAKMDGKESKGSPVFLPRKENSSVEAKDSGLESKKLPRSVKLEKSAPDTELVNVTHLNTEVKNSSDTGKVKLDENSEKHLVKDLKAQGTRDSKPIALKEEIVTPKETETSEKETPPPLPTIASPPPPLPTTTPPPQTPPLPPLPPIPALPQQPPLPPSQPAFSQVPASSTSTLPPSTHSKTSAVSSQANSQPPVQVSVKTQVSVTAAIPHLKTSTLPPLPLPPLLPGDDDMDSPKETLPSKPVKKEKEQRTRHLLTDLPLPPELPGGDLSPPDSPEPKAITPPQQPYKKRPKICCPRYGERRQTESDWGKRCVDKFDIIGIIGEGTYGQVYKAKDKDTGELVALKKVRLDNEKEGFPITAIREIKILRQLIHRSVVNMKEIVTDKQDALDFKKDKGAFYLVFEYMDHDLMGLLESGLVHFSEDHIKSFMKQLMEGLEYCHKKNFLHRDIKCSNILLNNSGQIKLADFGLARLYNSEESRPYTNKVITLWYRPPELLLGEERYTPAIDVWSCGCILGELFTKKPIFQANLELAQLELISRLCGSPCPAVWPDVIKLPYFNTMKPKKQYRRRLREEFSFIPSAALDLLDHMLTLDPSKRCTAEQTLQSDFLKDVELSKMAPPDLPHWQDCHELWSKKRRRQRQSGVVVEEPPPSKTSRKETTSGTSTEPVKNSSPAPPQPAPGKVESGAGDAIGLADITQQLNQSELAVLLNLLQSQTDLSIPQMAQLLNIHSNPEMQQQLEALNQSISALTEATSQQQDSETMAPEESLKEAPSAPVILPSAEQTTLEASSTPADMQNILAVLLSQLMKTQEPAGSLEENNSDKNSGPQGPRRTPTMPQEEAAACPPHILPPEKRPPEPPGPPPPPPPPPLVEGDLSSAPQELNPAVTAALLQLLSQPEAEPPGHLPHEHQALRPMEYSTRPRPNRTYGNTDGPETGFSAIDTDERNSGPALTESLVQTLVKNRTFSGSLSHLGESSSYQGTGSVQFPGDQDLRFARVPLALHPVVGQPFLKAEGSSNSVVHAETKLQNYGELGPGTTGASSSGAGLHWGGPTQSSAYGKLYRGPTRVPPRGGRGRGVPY
Sequence of CDK12 (O75909 whole entry partner): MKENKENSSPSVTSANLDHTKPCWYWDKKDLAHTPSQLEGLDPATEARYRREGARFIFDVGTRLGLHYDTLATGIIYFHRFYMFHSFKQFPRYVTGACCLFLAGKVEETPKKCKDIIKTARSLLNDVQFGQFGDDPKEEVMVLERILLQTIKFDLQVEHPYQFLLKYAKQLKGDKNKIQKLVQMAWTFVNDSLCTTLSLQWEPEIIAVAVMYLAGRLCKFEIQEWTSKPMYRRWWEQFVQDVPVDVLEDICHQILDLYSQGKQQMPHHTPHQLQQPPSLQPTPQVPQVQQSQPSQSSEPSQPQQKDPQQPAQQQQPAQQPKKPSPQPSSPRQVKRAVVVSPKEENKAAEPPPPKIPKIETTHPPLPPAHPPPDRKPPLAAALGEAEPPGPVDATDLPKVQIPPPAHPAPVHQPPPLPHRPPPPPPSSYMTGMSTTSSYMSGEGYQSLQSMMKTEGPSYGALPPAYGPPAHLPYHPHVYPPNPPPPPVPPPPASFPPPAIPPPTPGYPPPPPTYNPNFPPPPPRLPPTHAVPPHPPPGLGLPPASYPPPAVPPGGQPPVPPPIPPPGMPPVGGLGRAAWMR

| SMILES | IC50 [µM] | inhibition at 10 µM [%] |
| --- | --- | --- |
| CN1CCC(Oc2cc(NC(=O)Cc3ccc(C4=CCN(C#N)CC4)nc3)ncc2Cl)CC1 [Compound 11, N-(5-chloro-4-((1-methylpiperidin-4-yl)oxy)pyridin-2-yl)-2-(1′-cyano-1′,2′,3′,6′-tetrahydro-[2,4′-bipyridin]-5-yl)acetamide] | 0.01 to 0.1 | 89 |
| N#CN1CC=C(c2ccc(CC(=O)Nc3cc(OC4CCOC4)c(Cl)cn3)cn2)CC1 (centres unmarked) [Compound 12, N-(5-chloro-4-((tetrahydrofuran-3-yl)oxy)pyridin-2-yl)-2-(1′-cyano-1′,2′,3′,6′-tetrahydro-[2,4′-bipyridin]-5-yl)acetamide] | < 0.01 | 84 |
| Cc1cc(CC(=O)Nc2ccc(Cl)cn2)cnc1C1=CCN(C#N)CC1 [Compound 13, N-(5-chloropyridin-2-yl)-2-(1′-cyano-3-methyl-1′,2′,3′,6′-tetrahydro-[2,4′-bipyridin]-5-yl)acetamide] | 0.01 to 0.1 | 75 |
| COCC(C)Oc1cc(NC(=O)Cc2ccc(C3=CCN(C#N)CC3)nc2)ncc1Cl (centres unmarked) [Compound 14, N-(5-chloro-4-((1-methoxypropan-2-yl)oxy)pyridin-2-yl)-2-(1′-cyano-1′,2′,3′,6′-tetrahydro-[2,4′-bipyridin]-5-yl)acetamide] | < 0.01 | 96 |
| N#CN1CC=C(c2ccc(CC(=O)Nc3cc(OC4COC4)c(Cl)cn3)cn2)CC1 [Compound 15, N-(5-chloro-4-(oxetan-3-yloxy)pyridin-2-yl)-2-(1′-cyano-1′,2′,3′,6′-tetrahydro-[2,4′-bipyridin]-5-yl)acetamide] | < 0.01 | 96 |
| N#CN1CCC(c2ccc(CC(=O)Nc3ccc(Cl)cn3)cn2)C1 (centres unmarked) [Compound 16, N-(5-chloropyridin-2-yl)-2-(6-(1-cyanopyrrolidin-3-yl)pyridin-3-yl)acetamide] | 0.01 to 0.1 | 89 |
| N#CN1CC=C(c2ccc(CC(=O)Nc3cc(C4(O)COC4)c(Cl)cn3)cn2)CC1 [Compound 17, N-(5-chloro-4-(3-hydroxyoxetan-3-yl)pyridin-2-yl)-2-(1′-cyano-1′,2′,3′,6′-tetrahydro-[2,4′-bipyridin]-5-yl)acetamide] | < 0.01 | 92 |
| N#CN1CC=C(c2ncc(CC(=O)Nc3ccc(Cl)cn3)cc2F)CC1 [Compound 18, N-(5-chloropyridin-2-yl)-2-(1′-cyano-3-fluoro-1′,2′,3′,6′-tetrahydro-[2,4′-bipyridin]-5-yl)acetamide] | 0.01 to 0.1 | 87 |
| N#CN1CC=C(c2ccc(CC(=O)Nc3cc(OC4CCOCC4)c(Cl)cn3)cn2)CC1 [Compound 19, N-(5-chloro-4-((tetrahydro-2H-pyran-4-yl)oxy)pyridin-2-yl)-2-(1′-cyano-1′,2′,3′,6′-tetrahydro-[2,4′-bipyridin]-5-yl)acetamide] | < 0.01 | 91 |
| CCOc1cc(NC(=O)Cc2ccc(C3=CCN(C#N)CC3)nc2)ncc1Cl [Compound 20, N-(5-chloro-4-ethoxypyridin-2-yl)-2-(1′-cyano-1′,2′,3′,6′-tetrahydro-[2,4′-bipyridin]-5-yl)acetamide] | < 0.01 | 109 |
| CC(C)Oc1cc(NC(=O)Cc2ccc(C3=CCN(C#N)CC3)nc2)ncc1Cl [Compound 21, N-(5-chloro-4-isopropoxypyridin-2-yl)-2-(1′-cyano-1′,2′,3′,6′-tetrahydro-[2,4′-bipyridin]-5-yl)acetamide] | < 0.01 | 94 |
| COCCOc1cc(NC(=O)Cc2ccc(C3=CCN(C#N)CC3)nc2)ncc1Cl [Compound 22, N-(5-chloro-4-(2-methoxyethoxy)pyridin-2-yl)-2-(1′-cyano-1′,2′,3′,6′-tetrahydro-[2,4′-bipyridin]-5-yl)acetamide] | < 0.01 | 91 |
| CC(C)(O)c1cc(NC(=O)Cc2ccc(C3=CCN(C#N)CC3)nc2)ncc1Cl [Compound 23, N-(5-chloro-4-(2-hydroxypropan-2-yl)pyridin-2-yl)-2-(1′-cyano-1′,2′,3′,6′-tetrahydro-[2,4′-bipyridin]-5-yl)acetamide] | < 0.01 | 96 |
| N#CN1CC=C(c2ccc(CC(=O)Nc3cc(O[C@@H]4CCOC4)c(Cl)cn3)cn2)CC1 [Compound 26, (R)-N-(5-chloro-4-((tetrahydrofuran-3-yl)oxy)pyridin-2-yl)-2-(1′-cyano-1′,2′,3′,6′-tetrahydro-[2,4′-bipyridin]-5-yl)acetamide] | < 0.01 | 99 |
| N#CN1CC=C(c2ccc(CC(=O)Nc3cc(O[C@H]4CCOC4)c(Cl)cn3)cn2)CC1 [Compound 27, (S)-N-(5-chloro-4-((tetrahydrofuran-3-yl)oxy)pyridin-2-yl)-2-(1′-cyano-1′,2′,3′,6′-tetrahydro-[2,4′-bipyridin]-5-yl)acetamide] | < 0.01 | 93 |
| N#CN1CC=C(c2ccc(CC(=O)Nc3cc(OC4CCC4)c(Cl)cn3)cn2)CC1 [Compound 28, N-(5-chloro-4-cyclobutoxypyridin-2-yl)-2-(1′-cyano-1′,2′,3′,6′-tetrahydro-[2,4′-bipyridin]-5-yl)acetamide] | < 0.01 | 95 |
| CC(CN(C)C)Oc1cc(NC(=O)Cc2ccc(C3=CCN(C#N)CC3)nc2)ncc1Cl (centres unmarked) [Compound 31, N-(5-chloro-4-((1-(dimethylamino)propan-2-yl)oxy)pyridin-2-yl)-2-(1′-cyano-1′,2′,3′,6′-tetrahydro-[2,4′-bipyridin]-5-yl)acetamide] | < 0.01 | 89 |
| CN1CCC[C@@H](Oc2cc(NC(=O)Cc3ccc(C4=CCN(C#N)CC4)nc3)ncc2Cl)C1 [Compound 32, (R)-N-(5-chloro-4-((1-methylpiperidin-3-yl)oxy)pyridin-2-yl)-2-(1′-cyano-1′,2′,3′,6′-tetrahydro-[2,4′-bipyridin]-5-yl)acetamide] | < 0.01 | 84 |
| CN1CCC[C@H](Oc2cc(NC(=O)Cc3ccc(C4=CCN(C#N)CC4)nc3)ncc2Cl)C1 [Compound 33, (S)-N-(5-chloro-4-((1-methylpiperidin-3-yl)oxy)pyridin-2-yl)-2-(1′-cyano-1′,2′,3′,6′-tetrahydro-[2,4′-bipyridin]-5-yl)acetamide] | < 0.01 | 88 |
| COc1cc(NC(=O)Cc2ccc(C3=CCCN(C#N)C3)nc2)ncc1Cl [Compound 34, N-(5-chloro-4-methoxypyridin-2-yl)-2-(1′-cyano-1′,2′,5′,6′-tetrahydro-[2,3′-bipyridin]-5-yl)acetamide] | < 0.01 | 91 |
| COC[C@H](C)Oc1cc(NC(=O)Cc2ccc(C3=CCCN(C#N)C3)nc2)ncc1Cl [Compound 35, (S)-N-(5-chloro-4-((1-methoxypropan-2-yl)oxy)pyridin-2-yl)-2-(1′-cyano-1′,2′,5′,6′-tetrahydro-[2,3′-bipyridin]-5-yl)acetamide] | < 0.01 | 95 |
| COC[C@@H](C)Oc1cc(NC(=O)Cc2ccc(C3=CCCN(C#N)C3)nc2)ncc1Cl [Compound 36, (R)-N-(5-chloro-4-((1-methoxypropan-2-yl)oxy)pyridin-2-yl)-2-(1′-cyano-1′,2′,5′,6′-tetrahydro-[2,3′-bipyridin]-5-yl)acetamide] | < 0.01 | 95 |
